Results taken from PubChem BioAssay AID1259407 (Chemical Carcinogenesis Research Information System (CCRIS), 2018).
Activity calls are given as the source filed them. The rule behind the calls is not given here.

Tested on: CCRIS mutagenicity, Ames/micronucleus/aberration tests
Experiment: CCRIS mutagenicity studies
Details: Test System: AMES SALMONELLA TYPHIMURIUM
[1] = Strain/Indicator: TA97, Metabolic Activation: HAMSTER, LIVER, S-9, AROCLOR 1254 (10%), Method: PREINCUBATION
[2] = Strain/Indicator: TA97, Metabolic Activation: NONE, Method: PREINCUBATION
[3] = Strain/Indicator: TA97, Metabolic Activation: RAT, LIVER, S-9, AROCLOR 1254 (10%), Method: PREINCUBATION
[4] = Strain/Indicator: TA98, Metabolic Activation: HAMSTER, LIVER, S-9, AROCLOR 1254 (10%), Method: PREINCUBATION
[5] = Strain/Indicator: TA98, Metabolic Activation: NONE, Method: PREINCUBATION
[6] = Strain/Indicator: TA98, Metabolic Activation: RAT, LIVER, S-9, AROCLOR 1254 (10%), Method: PREINCUBATION
[7] = Strain/Indicator: TA100, Metabolic Activation: HAMSTER, LIVER, S-9, AROCLOR 1254 (10%), Method: PREINCUBATION
[8] = Strain/Indicator: TA100, Metabolic Activation: NONE, Method: PREINCUBATION
[9] = Strain/Indicator: TA100, Metabolic Activation: RAT, LIVER, S-9, AROCLOR 1254 (10%), Method: PREINCUBATION
[10] = Strain/Indicator: TA1535, Metabolic Activation: HAMSTER, LIVER, S-9, AROCLOR 1254 (10%), Method: PREINCUBATION
[11] = Strain/Indicator: TA1535, Metabolic Activation: NONE, Method: PREINCUBATION
[12] = Strain/Indicator: TA1535, Metabolic Activation: RAT, LIVER, S-9, AROCLOR 1254 (10%), Method: PREINCUBATION
[13] = Strain/Indicator: TA1537, Metabolic Activation: NONE, Method: PREINCUBATION
[14] = Strain/Indicator: TA98, Metabolic Activation: NONE, Method: STANDARD PLATE
[15] = Strain/Indicator: TA100, Metabolic Activation: NONE, Method: STANDARD PLATE

With `CCCCCCCC(=O)O` the mutagenic call [1] was “inactive; negative”, the mutagenic call (Strain/Indicator: TA97, Metabolic Activation: HAMSTER, LIVER, S-9, AROCLOR 1254 (30%), Method: PREINCUBATION) was “inactive; negative” and the mutagenic call [2] was “inactive; negative”. The mutagenic call [3] was “inactive; negative”, the mutagenic call (Strain/Indicator: TA97, Metabolic Activation: RAT, LIVER, S-9, AROCLOR 1254 (30%), Method: PREINCUBATION) was “inactive; negative” and the mutagenic call [4] was “inactive; negative”. For the same molecule, the mutagenic call (Strain/Indicator: TA98, Metabolic Activation: HAMSTER, LIVER, S-9, AROCLOR 1254 (30%), Method: PREINCUBATION) was “inactive; negative”, the mutagenic call [5] was “inactive; negative” and the mutagenic call [6] was “inactive; negative”. The mutagenic call (Strain/Indicator: TA98, Metabolic Activation: RAT, LIVER, S-9, AROCLOR 1254 (30%), Method: PREINCUBATION) was “inactive; negative”, the mutagenic call [7] was “inactive; negative” and the mutagenic call (Strain/Indicator: TA100, Metabolic Activation: HAMSTER, LIVER, S-9, AROCLOR 1254 (30%), Method: PREINCUBATION) was “inactive; negative”. For the same molecule, the mutagenic call [8] was “inactive; negative”, the mutagenic call [9] was “inactive; negative” and the mutagenic call (Strain/Indicator: TA100, Metabolic Activation: RAT, LIVER, S-9, AROCLOR 1254 (30%), Method: PREINCUBATION) was “inactive; negative”. For the same molecule, the mutagenic call [10] was “inactive; negative”, the mutagenic call (Strain/Indicator: TA1535, Metabolic Activation: HAMSTER, LIVER, S-9, AROCLOR 1254 (30%), Method: PREINCUBATION) was “inactive; negative” and the mutagenic call [11] was “inactive; negative”. For the same molecule, the mutagenic call [12] was “inactive; negative”, the mutagenic call (Strain/Indicator: TA1535, Metabolic Activation: RAT, LIVER, S-9, AROCLOR 1254 (30%), Method: PREINCUBATION) was “inactive; negative” and the mutagenic call (Strain/Indicator: TA1537, Metabolic Activation: HAMSTER, LIVER, S-9, AROCLOR 1254 (10%), Method: PREINCUBATION) was “inactive; negative”. The mutagenic call (Strain/Indicator: TA1537, Metabolic Activation: HAMSTER, LIVER, S-9, AROCLOR 1254 (30%), Method: PREINCUBATION) was “inactive; negative”, the mutagenic call [13] was “inactive; negative” and the mutagenic call (Strain/Indicator: TA1537, Metabolic Activation: RAT, LIVER, S-9, AROCLOR 1254 (10%), Method: PREINCUBATION) was “inactive; negative”. For the same molecule, the mutagenic call (Strain/Indicator: TA1537, Metabolic Activation: RAT, LIVER, S-9, AROCLOR 1254 (30%), Method: PREINCUBATION) was “inactive; negative”.
With `Nc1ccc(-c2ccc(N)c([N+](=O)[O-])c2)cc1[N+](=O)[O-]` the mutagenic call (Strain/Indicator: TA98(1,8-DNP6), Metabolic Activation: NONE, Method: STANDARD PLATE) was “inactive; negative”, the mutagenic call (Strain/Indicator: TA98(1,8-DNP6), Metabolic Activation: S-9, Method: STANDARD PLATE) was “active; positive” and the mutagenic call [14] was “active; positive”. The mutagenic call (Strain/Indicator: TA98, Metabolic Activation: S-9, Method: STANDARD PLATE) was “active; positive”, the mutagenic call [15] was “inactive; negative” and the mutagenic call (Strain/Indicator: TA100, Metabolic Activation: S-9, Method: STANDARD PLATE) was “active; positive”.
With `Cc1cc(C)cc(C)c1` the mutagenic call (Strain/Indicator: TA97A, Metabolic Activation: NONE, Method: STANDARD PLATE) was “inactive; negative”, the mutagenic call (Strain/Indicator: TA97A, Metabolic Activation: RAT, LIVER, S-9, AROCLOR 1254, Method: STANDARD PLATE) was “inactive; negative” and the mutagenic call [14] was “inactive; negative”. For the same molecule, the mutagenic call (Strain/Indicator: TA98, Metabolic Activation: RAT, LIVER, S-9, AROCLOR 1254, Method: STANDARD PLATE) was “inactive; negative”, the mutagenic call [15] was “inactive; negative” and the mutagenic call (Strain/Indicator: TA100, Metabolic Activation: RAT, LIVER, S-9, AROCLOR 1254, Method: STANDARD PLATE) was “inactive; negative”. The mutagenic call (Strain/Indicator: TA102, Metabolic Activation: NONE, Method: STANDARD PLATE) was “inactive; negative” and the mutagenic call (Strain/Indicator: TA102, Metabolic Activation: RAT, LIVER, S-9, AROCLOR 1254, Method: STANDARD PLATE) was “inactive; negative”.
In the case of `Cc1c(N=[N+]([O-])c2cccc([N+](=O)[O-])c2C)cccc1[N+](=O)[O-]`, the mutagenic call [5] is reported as “inactive; negative”, the mutagenic call (Strain/Indicator: TA98, Metabolic Activation: RAT, LIVER, S-9, PHENOBARBITAL AND 5,6-BENZOFLAVONE, Method: PREINCUBATION) is reported as “inactive; negative” and the mutagenic call [8] is reported as “inactive; negative”. For the same molecule, the mutagenic call (Strain/Indicator: TA100, Metabolic Activation: RAT, LIVER, S-9, PHENOBARBITAL AND 5,6-BENZOFLAVONE, Method: PREINCUBATION) was “inactive; negative”.
`CC(C)CCC[C@@H](C)[C@H]1CC[C@H]2[C@@H]3C=CC4(OO)C[C@@H](O)CC[C@]4(C)[C@H]3CC[C@]12C` (stereo partly drawn) was tested, and the mutagenic call [13] was “active; positive”.
`Cc1ccc2ccc3cc4ccccc4cc3c2c1` was tested, and the mutagenic call (Strain/Indicator: TA100, Metabolic Activation: RAT, INTACT HEPATOCYTES, AROCLOR 1254, Method: PREINCUBATION) was “inactive; negative”, the mutagenic call (Strain/Indicator: TA100, Metabolic Activation: RAT, NADPH-FORTIFIED HOMOGENIZED HEPATOCYTES, AROCLOR 1254, Method: PREINCUBATION) was “active; positive” and the mutagenic call (Strain/Indicator: TA100, Metabolic Activation: RAT, SONICATED HEPATOCYTES, AROCLOR 1254, Method: PREINCUBATION) was “active; positive”.
With `CCNc1cccc(O)c1` the mutagenic call [1] was “inactive; negative”, the mutagenic call [2] was “inactive; negative” and the mutagenic call [3] was “inactive; negative”. The mutagenic call [4] was “active; positive”, the mutagenic call [5] was “inactive; negative” and the mutagenic call [6] was “active; positive”. The mutagenic call [7] was “inactive; negative”, the mutagenic call [8] was “inactive; negative” and the mutagenic call [9] was “inactive; negative”. The mutagenic call [10] was “inactive; negative”, the mutagenic call [11] was “inactive; negative” and the mutagenic call [12] was “inactive; negative”.
For `c1ccc(CCC2CO2)cc1` (stereo not drawn), the mutagenic call [8] was “active; positive”, the mutagenic call [15] was “active; positive” and the mutagenic call [11] was “active; positive”. The mutagenic call (Strain/Indicator: TA1535, Metabolic Activation: NONE, Method: STANDARD PLATE) was “active; positive”.
